Assay results reported in ChEMBL document CHEMBL3124830, “Hepatitis C virus translation inhibitors targeting the internal ribosomal entry site” (J Med Chem, 2014).

Tests used:
[1] = Binding affinity to Hepatitis C virus genotype 1b IRES RNA subdomain 2a assessed as conformational change by cyanine dye-based FRET assay; set-up: species or system Hepatitis C virus subtype 1b
Hepatitis C virus [2] = assay: Antiviral activity against Hepatitis C virus infected in Huh-7 cells assessed as inhibition of HCV replicon at 10 uM by replicon assay; format: functional, Hepacivirus hominis
[3] = tested on: Internal ribosome entry site (IRES); assay: Inhibition of Hepatitis C virus IRES RNA-driven translation; conditions: Hepacivirus hominis
Hepatitis C virus [4] = assay: Antiviral activity against Hepatitis C virus infected in Huh-7 cells assessed as inhibition of HCV replicon by replicon assay; format: functional, organism-based, Hepacivirus hominis
[5] = tested on: Internal ribosome entry site (IRES); assay: Binding affinity to Hepatitis C virus IRES RNA subdomain 2a by mass spectrometry assay; set-up: species or system Hepacivirus hominis

| EC50 [1] [µM] | IC50 [3] [µM] | EC50 (Hepatitis C virus [4]) [µM] | SMILES | inhibition at 10 µM (Hepatitis C virus [2]) [%] | Kd [5] [µM] |
| --- | --- | --- | --- | --- | --- |
| 6.3 |  |  | CC(=O)c1ccc(C(=O)N[C@@H](CCCCN)C(=O)N2C[C@H](N)C[C@H](N)C2)cc1 | 75 |  |
|  | 9.6 |  | Cc1cc(C)nc(/N=C(\N)NCCc2ccccc2)n1 |  |  |
|  | 0.08 |  | Cc1cc2nc3ccc(N(C)C)cc3nc2cc1N |  |  |
| 0.6 |  | 4 | CN(C)CC1COc2ccc3nc4n(c3c2C1)CC(CN(C)C)CN4 (stereo unspecified) |  |  |
| 50 |  |  | CN(C)CCCn1c(N)nc2ccccc21 |  | 100 |
| 3.4 |  | 2.8 | CN(C)CCCn1c(N)nc2ccc3c(c21)CC(CN(C)C)CO3 (stereo unspecified) |  | 0.86 |
